Literature values in US9414584B2, “Stabilized hypohalous acid solutions” (PURICORE, INC., priority 2011, dated 2016).
Read-outs that look alike come from different tables or passages of the source.

Tests used:
[1] = system: E. coli; conditions: 2.6 ppm; dilute bacterial suspensions; about 5 minutes
[2] = system: E. coli
[3] = system: S. typhosa
[4] = system: Escherichia coli; conditions: Escherichia coli exposed to hypochlorous acid
[5] = system: S. dysenteriae
[6] = system: A. aerogenes

| SMILES | growth inhibition of E. coli [1] [%] | concentration required for 100% kill in 5 minutes [2] [ppm] | concentration required for 100% kill in 5 minutes [3] [ppm] | time to lose viability [4] | concentration required for 100% kill in 5 minutes [5] [ppm] | concentration required for 100% kill in 5 minutes [6] [ppm] | time for 25 mg/mL solution to reach 20 mg/mL of free residual chlorine (20° C., Arrhenius calculation from studies at 50° C. and 70° C.) [days] | loss of titrable chlorine (in the first 6 months) | loss of titrable chlorine (within a year) |
| --- | --- | --- | --- | --- | --- | --- | --- | --- | --- |
| OCl [hypochlorous acid] | 100 | 0.03 | 0.06 | less than 100 ms | 0.05 | 0.08 |  |  |  |
| OCl [sodium hypochlorite solution, sodium hypochlorite] |  |  |  |  |  |  | 166 | approximately 20% | up to 60% |
